# From ChEMBL document CHEMBL2040728, “New substituted 4H-chromenes as anticancer agents” (Bioorg Med Chem Lett, 2012)
# Assays:
# [1] = Antiproliferative activity against human A172 cells after 5 days by MTT assay; format: functional, cell-based; conditions: A 172, 120 h
# [2] = Antiproliferative activity against human U87 cells after 5 days by MTT assay; format: functional, cell-based, U-87MG ATCC; conditions: U-87 MG, 120 h
# T98G = experiment: Antiproliferative activity against human T98G cells after 5 days by MTT assay; format: functional, cell-based; conditions: 120 h
# [3] = Antiproliferative activity against human LN18 cells after 5 days by MTT assay; format: functional, cell-based; conditions: LN-18, 120 h
# [4] = Cytotoxicity against mouse primary astrocytes after 5 days by MTT assay; format: cell-based; conditions: Astrocyte, 120 h
# DU-145 = experiment: Cytotoxicity against human DU145 cells assessed as growth at 10 uM; format: functional; conditions: read-out: Activity
# COLO 205 = experiment: Cytotoxicity against human COLO205 cells assessed as growth at 10 uM; format: functional; conditions: read-out: Activity
# OVCAR-8 = experiment: Cytotoxicity against human OVCAR8 cells assessed as growth at 10 uM; format: functional; conditions: read-out: Activity
# CAKI-1 = experiment: Cytotoxicity against human Caki1 cells assessed as growth at 10 uM; format: functional; conditions: read-out: Activity
# LNCaP = experiment: Antiproliferative activity against human LNCAP cells after 96 hrs by SRB assay; format: functional, cell-based
# PC-3 [5] = experiment: Cytotoxicity against human PC3 cells assessed as growth at 10 uM; format: functional; conditions: read-out: Activity
# SF-268 = experiment: Cytotoxicity against human SF268 cells assessed as growth at 10 uM; format: functional; conditions: read-out: Activity
# NCI-H522 = experiment: Cytotoxicity against human NCI-H522 cells assessed as growth at 10 uM; format: functional; conditions: read-out: Activity
# TK-10 = experiment: Cytotoxicity against human TK10 cells assessed as growth at 10 uM; format: functional; conditions: read-out: Activity
# NCI-H226 = experiment: Cytotoxicity against human NCI-H226 cells assessed as growth at 10 uM; format: functional; conditions: read-out: Activity
# SF-295 = experiment: Cytotoxicity against human SF295 cells assessed as growth at 10 uM; format: functional; conditions: read-out: Activity
# A-375 = experiment: Antiproliferative activity against human A375 cells after 48 hrs by SRB assay; format: functional, cell-based; conditions: A-375, 48 h
# HT-29 = experiment: Cytotoxicity against human HT-29 cells assessed as growth at 10 uM; format: functional; conditions: read-out: Activity
# SK-MEL-2 = experiment: Cytotoxicity against human SK-MEL-2 cells assessed as growth at 10 uM; format: functional; conditions: read-out: Activity
# SK-MEL-28 = experiment: Cytotoxicity against human SK-MEL-28 cells assessed as growth at 10 uM; format: functional; conditions: read-out: Activity
# MDA-MB-468 = experiment: Cytotoxicity against human MDA-MB-468 cells assessed as growth at 10 uM; format: functional; conditions: read-out: Activity
# MDA-MB-231 = experiment: Cytotoxicity against human MDA-MB-231 cells assessed as growth at 10 uM; format: functional; conditions: read-out: Activity
# U-251 = experiment: Cytotoxicity against human U251 cells assessed as growth at 10 uM; format: functional; conditions: read-out: Activity
# SNB-75 = experiment: Cytotoxicity against human SNB75 cells assessed as growth at 10 uM; format: functional; conditions: read-out: Activity
# SW-620 = experiment: Cytotoxicity against human SW620 cells assessed as growth at 10 uM; format: functional; conditions: read-out: Activity
# CCRF-CEM = experiment: Cytotoxicity against human CCRF-CEM cells assessed as growth at 10 uM; format: functional; conditions: read-out: Activity
# Malme-3M = experiment: Cytotoxicity against human MALME-3M cells assessed as growth at 10 uM; format: functional; conditions: read-out: Activity
# KM12 = experiment: Cytotoxicity against human KM12 cells assessed as growth at 10 uM; format: functional; conditions: read-out: Activity
# K562 = experiment: Cytotoxicity against human K562 cells assessed as growth at 10 uM; format: functional; conditions: read-out: Activity
# NCI-H322M = experiment: Cytotoxicity against human NCI-H322M cells assessed as growth at 10 uM; format: functional; conditions: read-out: Activity
# NCI/ADR-RES = experiment: Cytotoxicity against human NCI/ADR-RES cells assessed as growth at 10 uM; format: functional; conditions: read-out: Activity
# OVCAR-5 = experiment: Cytotoxicity against human OVCAR5 cells assessed as growth at 10 uM; format: functional; conditions: read-out: Activity
# UACC-257 = experiment: Cytotoxicity against human UACC257 cells assessed as growth at 10 uM; format: functional; conditions: read-out: Activity
# [6] = Antiproliferative activity against human paclitaxel-resistant PC3-TxR cells after 96 hrs by SRB assay; format: functional, cell-based
# PC-3 [7] = experiment: Antiproliferative activity against human PC3 cells after 96 hrs by SRB assay; format: functional, cell-based; conditions: PC-3, 96 h
# M14 = experiment: Cytotoxicity against human M14 cells assessed as growth at 10 uM; format: functional; conditions: read-out: Activity
# 786-0 = experiment: Cytotoxicity against human 786-0 cells assessed as growth at 10 uM; format: functional; conditions: read-out: Activity
# HOP-62 = experiment: Cytotoxicity against human HOP62 cells assessed as growth at 10 uM; format: functional; conditions: read-out: Activity
# MDA-MB-435 = experiment: Cytotoxicity against human MDA-MB-435 cells assessed as growth at 10 uM; format: functional; conditions: read-out: Activity
# MOLT-4 = experiment: Cytotoxicity against human MOLT4 cells assessed as growth at 10 uM; format: functional; conditions: read-out: Activity
# SN12C = experiment: Cytotoxicity against human SN12C cells assessed as growth at 10 uM; format: functional; conditions: read-out: Activity
# SK-OV-3 = experiment: Cytotoxicity against human SKOV3 cells assessed as growth at 10 uM; format: functional; conditions: read-out: Activity
# UACC-62 = experiment: Cytotoxicity against human UACC62 cells assessed as growth at 10 uM; format: functional; conditions: read-out: Activity
# [8] = Cytotoxicity against human Hs 578T cells assessed as growth at 10 uM; format: functional; conditions: read-out: Activity
# BT-549 = experiment: Cytotoxicity against human BT549 cells assessed as growth at 10 uM; format: functional; conditions: read-out: Activity
# T47D = experiment: Cytotoxicity against human T47D cells assessed as growth at 10 uM; format: functional; conditions: read-out: Activity
# HL-60(TB) = experiment: Cytotoxicity against human HL-60(TB) cells assessed as growth at 10 uM; format: functional; conditions: read-out: Activity
# RXF 393 = experiment: Cytotoxicity against human RXF393 cells assessed as growth at 10 uM; format: functional; conditions: read-out: Activity
# LOX IMVI = experiment: Cytotoxicity against human LOXIMVI cells assessed as growth at 10 uM; format: functional; conditions: read-out: Activity
# HCC 2998 = experiment: Cytotoxicity against human HCC2998 cells assessed as growth at 10 uM; format: functional; conditions: read-out: Activity
# RPMI-8226 = experiment: Cytotoxicity against human RPMI8226 cells assessed as growth at 10 uM; format: functional; conditions: read-out: Activity
# ACHN = experiment: Cytotoxicity against human ACHN cells assessed as growth at 10 uM; format: functional; conditions: read-out: Activity
# SNB-19 = experiment: Cytotoxicity against human SNB19 cells assessed as growth at 10 uM; format: functional; conditions: read-out: Activity
# OVCAR-3 = experiment: Cytotoxicity against human OVCAR3 cells assessed as growth at 10 uM; format: functional; conditions: read-out: Activity
# UO-31 = experiment: Cytotoxicity against human UO31 cells assessed as growth at 10 uM; format: functional; conditions: read-out: Activity
# HCT-116 = experiment: Cytotoxicity against human HCT116 cells assessed as growth at 10 uM; format: functional; conditions: read-out: Activity
# A549 = experiment: Cytotoxicity against human A549 cells assessed as growth at 10 uM; format: functional; conditions: read-out: Activity
# EKVX = experiment: Cytotoxicity against human EKVX cells assessed as growth at 10 uM; format: functional; conditions: read-out: Activity
# [9] = Antiproliferative activity against human WM164 cells after 48 hrs by SRB assay; format: functional, cell-based; conditions: WM164, 48 h
# MCF7 = experiment: Cytotoxicity against human MCF7 cells assessed as growth at 10 uM; format: functional; conditions: read-out: Activity
# SK-MEL-5 = experiment: Cytotoxicity against human SK-MEL-5 cells assessed as growth at 10 uM; format: functional; conditions: read-out: Activity
# OVCAR-4 = experiment: Cytotoxicity against human OVCAR4 cells assessed as growth at 10 uM; format: functional; conditions: read-out: Activity
# IGROV-1 = experiment: Cytotoxicity against human IGROV1 cells assessed as growth at 10 uM; format: functional; conditions: read-out: Activity
# HCT-15 = experiment: Cytotoxicity against human HCT15 cells assessed as growth at 10 uM; format: functional; conditions: read-out: Activity
# SF-539 = experiment: Cytotoxicity against human SF539 cells assessed as growth at 10 uM; format: functional; conditions: read-out: Activity
# HOP-92 = experiment: Cytotoxicity against human HOP92 cells assessed as growth at 10 uM; format: functional; conditions: read-out: Activity
# NCI-H23 = experiment: Cytotoxicity against human NCI-H23 cells assessed as growth at 10 uM; format: functional; conditions: read-out: Activity
# NCI-H460 = experiment: Cytotoxicity against human NCI-H460 cells assessed as growth at 10 uM; format: functional; conditions: read-out: Activity
compound,measurement,setting,value
Cn1nnc2c(C(N)=O)ncn2c1=O [TEMOZOLOMIDE],IC50,[1],65 µM
same,IC50,[2],49 µM
same,IC50,T98G,570 µM
same,IC50,[3],390 µM
same,IC50,[4],> 1000 µM
CN(C)c1ccc2c(c1)OC(N)=C(C#N)C2c1cccc2c(F)cccc12 (configuration not stated),growth at 10 µM,DU-145,-16.5%
same,growth at 10 µM,COLO 205,-38.1%
same,growth at 10 µM,OVCAR-8,-23.4%
same,growth at 10 µM,CAKI-1,22.9%
same,IC50,LNCaP,0.25 µM
same,growth at 10 µM,PC-3 [5],14.4%
same,growth at 10 µM,SF-268,24.8%
same,growth at 10 µM,NCI-H522,-17.5%
same,growth at 10 µM,TK-10,45.8%
same,growth at 10 µM,NCI-H226,0%
same,growth at 10 µM,SF-295,8.13%
same,IC50,A-375,0.13 µM
same,growth at 10 µM,HT-29,-3.8%
same,growth at 10 µM,SK-MEL-2,27.9%
same,growth at 10 µM,SK-MEL-28,54.1%
same,growth at 10 µM,MDA-MB-468,27.6%
same,growth at 10 µM,MDA-MB-231,31.9%
same,growth at 10 µM,U-251,6.44%
same,growth at 10 µM,SNB-75,22.3%
same,growth at 10 µM,SW-620,23.5%
same,growth at 10 µM,CCRF-CEM,11.3%
same,growth at 10 µM,Malme-3M,49.6%
same,growth at 10 µM,KM12,-0.79%
same,growth at 10 µM,K562,6.85%
same,growth at 10 µM,NCI-H322M,45.4%
same,growth at 10 µM,NCI/ADR-RES,-6.17%
same,growth at 10 µM,OVCAR-5,27.6%
same,growth at 10 µM,UACC-257,51.5%
same,IC50,[6],0.19 µM
same,IC50,PC-3 [7],0.42 µM
same,IC50,[1],0.0207 µM
same,IC50,[2],0.0629 µM
same,growth at 10 µM,M14,-1.53%
same,growth at 10 µM,786-0,16.8%
same,growth at 10 µM,HOP-62,39.8%
same,growth at 10 µM,MDA-MB-435,-32.4%
same,growth at 10 µM,MOLT-4,13.9%
same,growth at 10 µM,SN12C,16.4%
same,growth at 10 µM,SK-OV-3,5.75%
same,growth at 10 µM,UACC-62,38.9%
same,growth at 10 µM,[8],19.2%
same,growth at 10 µM,BT-549,-12.8%
same,growth at 10 µM,T47D,61.8%
same,growth at 10 µM,HL-60(TB),-18.4%
same,growth at 10 µM,RXF 393,7.11%
same,growth at 10 µM,LOX IMVI,5.96%
same,growth at 10 µM,HCC 2998,7.74%
same,growth at 10 µM,RPMI-8226,20.5%
same,growth at 10 µM,ACHN,27.6%
same,growth at 10 µM,SNB-19,39%
same,growth at 10 µM,OVCAR-3,-35.4%
same,growth at 10 µM,UO-31,49.4%
same,growth at 10 µM,HCT-116,-5.99%
same,growth at 10 µM,A549,11.5%
same,growth at 10 µM,EKVX,36.7%
same,IC50,[9],0.22 µM
same,growth at 10 µM,MCF7,13.3%
same,growth at 10 µM,SK-MEL-5,13.7%
same,IC50,[3],0.0804 µM
same,growth at 10 µM,OVCAR-4,27.3%
same,growth at 10 µM,IGROV-1,32.3%
same,growth at 10 µM,HCT-15,6.89%
same,growth at 10 µM,SF-539,-7.29%
same,growth at 10 µM,HOP-92,-2.42%
same,growth at 10 µM,NCI-H23,-0.47%
same,growth at 10 µM,NCI-H460,1.28%
same,IC50,[4],9.45 µM
